According to patent US20220054576A1, “PHARMACEUTICAL COMPOSITION COMPRISING EXTRACT FROM CAMELLIA JAPONICA AS ACTIVE INGREDIENT FOR PREVENTION AND TREATMENT OF VIRAL INFECTION” (HUSCION CO., LTD., priority 2019, published 2022):

What was measured:
FluB Lee = test: Cytopathic effect (CPE) inhibition test, Flu B Lee; conditions: read-out: Antiviral activity EC50 FluB Lee, MDCK cells, 2 days, positive controls
FluA H1N1 PR8 = test: microbe, parasite or virus in culture; format: cell-based; conditions: Influenza A virus, 48 h; MDCK cells, CPE inhibition, 2 days; positive controls; read-out: Antiviral activity EC50 FluA H1N1 PR8
FluA H3N2 HongKong = test: microbe, parasite or virus in culture; format: cell-based, influenza A virus; conditions: for EC50: Influenza A virus, H3N2, 48 h, MDCK cells, CPE inhibition, 2 days, positive controls, read-out: Antiviral activity EC50 FluA H3N2 HongKong
in vitro = conditions: dog

Compound	EC50 (FluB Lee) [µM]	EC50 (FluA H1N1 PR8) [µM]	EC50 (FluA H3N2 HongKong) [µM]	CC50 (in vitro) [µM]	Selectivity index FluA H3N2 HongKong (FluA H3N2 HongKong)
NC(=O)c1ncn([C@@H]2O[C@H](CO)[C@@H](O)[C@H]2O)n1 [RBV, ribavirin]	19.6	29.9	13.4		
NC12CC3CC(CC(C3)C1)C2 [AMT, amantadine]	> 100	> 100	2.3	> 100	>43.5
